The values that follow come from US8168178B2, “Methods and compositions for regulating lymphocyte activity” (Curis, Inc., priority 1999, dated 2012).

A value given as a limit tells only on which side of the number the result lay.

The subject of experiment [1] is thymocytes in wild-type FTOC. Put plainly: Fetal thymic organ culture (FTOC) of wild-type thymus, flow cytometry of thymocyte subsets. It is filed as cell-based, mouse. As for the experimental part:
Utilizing a fetal thymic organ culture (FTOC), the effects of Shh on T-cell maturation was determined. Briefly, immature thymocytes (CD4^−/CD8^− [DN]) were isolated from E14 thymus. The cells were culture for about 7 days, and the level of mature thymocytes, e.g., CD4^+/CD8^+ [DP], was assessed. In certain cultures, octyl-modified Shh was added to the culture; in other cultures, the anti-hedgehog 5E1 antibody was added.
We have previously shown that treatment of wild-type FTOC with between 0.3 and 1 μg/ml recombinant Shh arrested thymocyte development at the DN stage (Outram et al., Immunity 13: 187, 2000). This arrest was not due to nonspecific toxicity of the recombinant Shh, but was a genuine biological effect, as it could be neutralized by addition of anti-Hh mAb. […] Therefore, we decided to determine whether treatment of FTOC with lower concentrations of Shh could promote thymocyte development. We treated wild-type FTOC for 5 days with 0.0005 μg/ml Shh or 0.5 μg/ml Shh. In a typical experiment, treatment with 0.5 μg/ml Shh arrested thymocyte development at the DN stage, and <1% of thymocytes were DP compared with 7.6% in the control cultures, whereas treatment with 0.0005 μg/ml Shh promoted thymocyte development, and 15.2% of cells were DP (FIG. 12A). […] Treatment with 0.5 μg/ml inhibited both the production of DP cells and the overall cell recovery, and this inhibition was neutralized by addition of anti-Hh mAb, confirming that the arrest in thymocyte development was not the result of non-specific toxicity of the reagent (FIG. 12B). Thus, in wild-type FTOC, treatment with different concentrations of recombinant Shh can produce distinct outcomes at the transition from DN to DP cells; high-dose Shh treatment arrests thymocyte development, but treatment with a 1000-fold lower dose promotes the production of DP cells (FIG. 12, A-C).
(§1) Thymocyte suspensions were prepared by crushing thymi between two pieces of ground glass. Cells were stained using combinations of the following directly conjugated antibodies obtained from BD Pharmingen: anti-CD44FITC, anti-CD44Cychrome, anti-CD25 PE, anti-CD25 FITC, anti-CD4FITC, anti-CD8 Cychrome, anti-CD4PE, anti-CD4Cychrome, anti-CD8FITC, anti-CD45.1PE, anti-CD45.2FITC, anti-CD3PE and anti-TCR-βPE. Cell suspensions were stained with the antibodies for 30 minutes on ice in 50 μl of Dulbeccos modified medium (Life Technologies), supplemented with 5% FCS and 0.1% sodium azide. Cells were washed in this medium between incubations and prior to analysis on the FACScan (Becton Dickinson). Events were collected in list mode using CellQuest software and data analysed using CellQuest Pro software. Live cells were gated according to their FSC and SSC profiles. Data are representative of at least three experiments.
(§2) Fetal thymi were dissected from E14.5 Shh +/+, +/− and −/− mice and cultured on 8 μm pore size Millipore filters (Millipore) in AIM-V serum free medium (Life Technologies). Thymi were cultured at 37° C. and 5% CO2 for 3 or 6 days or cultured in the presence of 0.5 μg/ml or 0.0005 μg/ml modified human Shh (Curis) for 7 days.
For orientation: A flow cytometer gives signals particle by particle.

Experiment [2] concerns thymocytes in wild-type FTOC. The conditions noted are these: cited from earlier work.
Experiment [3] deals with thymocytes in Shh−/− FTOC. Put plainly: FTOC of E14.5 Shh−/− thymus explants treated with recombinant Shh. It is filed as cell-based, mouse. As for the experimental part:
As thymocyte cellularity and differentiation were reduced in Shh−/− thymi, we examined if we could promote thymocyte development in Shh−/− thymus explants by treatment with recombinant Shh. We have previously shown that treatment of wildtype FTOC with between 0.3 to 1 μg/ml recombinant Shh arrested thymocyte development at the DN stage (Outram et al., 2000). […] We treated Shh−/− thymus explants for 7 days with 0.5 or 0.0005 μg/ml recombinant Shh. Treatment with 0.5 μg/ml Shh inhibited differentiation from DN to DP cells. In a typical experiment, 5.2% of thymocytes were DP in the treated cultures compared with 36.6% in control cultures (FIG. 12, D and E). Thus, Shh−/− thymocytes were able to respond to a Shh signal in the same way as wildtype thymocytes, despite the fact that they had not been exposed to Shh in vivo. Although this high dose of Shh arrested thymocyte differentiation, some activation of the Hh signalling pathway is clearly necessary for normal thymocyte differentiation. We therefore treated Shh−/− explants with a 1000-fold lower dose of recombinant Shh (0.0005 μg/ml). Treatment of Shh−/− thymus explants with low-dose Shh promoted differentiation to DP cell: After 7 days in culture Shh−/− thymus explants treated with 0.0005 μg/ml Shh contained more DP thymocytes than untreated Shh−/− thymus explants −41.6% DP thymocytes and 32.7% DN thymocytes in treated Shh−/− thymus explants, compared with 36.6% DP cells and 43.1% DN cells in untreated control Shh−/− thymus cultures (FIG. 9b).
We repeated these experiments by treating individual Shh−/− thymus lobes with recombinant Shh and comparing them to untreated cultures of the other lobe from the same embryo (summarized in FIG. 12F, cell production in each culture condition compared with that in the control lobe are shown on a log scale).
as §1, §2

“Shh: hydrophobically modified human Shh signalling protein, N-octyl-malemide coupled to amino-terminal cysteine of bacterially derived N-shh (Curis)”: the “percentage of cells with markers indicative of immature thymocytes” value in experiment [1] (E14 thymus, about 7 days culture, high dose of Shh 0.5 μg/ml) is on record as “increase”. For the same substance, the “Shh concentration at which Hedgehog functions as an immunosuppressant” value in experiment [1] (FTOC, FIG. 12B) was “more than 0.1 μg/ml”. In addition, the “promotion of thymocyte development” value in experiment [1] (wild-type FTOC, 0.00005 μg/ml) is reported as “lost”. In experiment [1] (wild-type FTOC, 5 days, 0.0005 μg/ml Shh, control cultures 7.6%), the “cells that were DP” value came to 15.2%. Further, the “thymocytes that were DP” value in experiment [1] (wild-type FTOC, 5 days, 0.5 μg/ml Shh, control cultures 7.6%) is less than 1%; in experiment [3] (Shh−/− explants, 7 days, 0.5 μg/ml Shh, control cultures 36.6%), 5.2%. Further, the “thymocyte development at the DN3 stage, after TCRβ chain gene rearrangement” value in experiment [2] (in vitro treatment of FTOC (Outram et al. 2000)) was “arrested”. Moreover, in experiment [2] (wild-type FTOC, between 0.3 and 1 μg/ml recombinant Shh (Outram et al. 2000)), the “thymocyte development at the DN stage” value is “arrested”. In experiment [3] (Shh−/− explants, 7 days, 0.0005 μg/ml Shh, untreated 43.1%), the DN thymocytes amounted to 32.7%. Further, the “production of DP cells” value in experiment [3] (Shh−/− explants, low dose treatment (0.0005 μg/ml), overall) is given as “more than doubled”. Further, the “cell number compared to control” value in experiment [3] (Shh−/− explants, low-dose Shh (0.0005 μg/ml)) is reported as “increased”. In addition, in experiment [3] (Shh−/− thymus explants, 0.5 μg/ml Shh), the “differentiation from DN to DP cells” value is reported as “inhibited”. The “overall cell production and differentiation to DP cell” value in experiment [3] (individual Shh−/− thymus lobes, high dose Shh) is given as “inhibited”.
